The values that follow come from patent US10023539B2, “Aryl-cyanoguanidine compounds” (Bayer Pharma Aktiengesellschaft, priority 2014, dated 2018).

Assay [1] addresses T1, SMYD2 (Homo sapiens (Human), UniProt Q9NRG4). The experiment in a line: Scintillation Proximity Assay (SPA) for detection of SMYD2 enzymatic inhibition. The format is biochemical. The following applies: read-out: IC50 [mol/l] (SPA Assay). As to the method: 1.1 Scintillation Proximity Assay (SPA) for Detection of SMYD2 Enzymatic Inhibition
The SMYD2 full length enzyme was produced in-house by expression (with an N-terminal 6×His tag) in E. coli and purification by affinity chromatography on a Ni-NTA Sepharose column followed by a size exclusion chromatography step on a Superdex 200 16/60 column (GE Healthcare).
To this end, 100-fold concentrated compound solutions (in DMSO) were previously prepared by serial dilution (1:3.4) of 2 mM stocks in a clear low volume 384-well source microtiter plate (Greiner Bio-One), from which 50 nl of compound solutions were transferred into a white low volume test microtiter plate from the same supplier. […] The samples were then incubated for 15 min at 22° C. to allow pre-equilibration of the putative enzyme-inhibitor complexes before the start of the methylation reaction, which was initiated by the addition of 2.5 μl 2-fold concentrated solution (in assay buffer) of titrated S-Adenosyl-L-Methionine (3H-SAM, Perkin Elmer, final concentration: 60 nM) and p53 Peptide substrate (final concentration: 1.0 μM). The resulting mixture (5 μl final volume) was shortly centrifuged (2 min., 1500 rpm) and incubated at 22° C. during 30 min. Thereupon the reaction was stopped by adding 3 μl of Streptavidin PS SPA imaging beads (Perkin Elmer, final concentration of 3.12 μg/μl) and “cold” SAM (AK Scientific, 25 μM final concentration) for non-specific binding reduction. Plates containing the stopped reaction were sealed with transparent adhesive foil (Perkin Elmer), centrifuged (2 min., 1500 rpm), and further incubated for—at least—1 h at RT (or overnight at 4° C.) in order to allow the SPA signals to develop. […] IC50 values were calculated by fitting the normalized inhibition data to a 4-parameter logistic equation using the “Screener” analysis software from Genedata.
A general note: Scintillation proximity formats need no separation of bound from free tracer.

The target in assay [2] is T1, SMYD2. Put plainly: In Cell Western (ICW) cell-based assay for detection of SMYD2 methylation activity. The following applies: SMYD2 overexpressing KYSE-150 cells, 72 h treatment, p53K370me1 signal; read-out: IC50 [mol/l] (ICW assay).
Excerpt: For the detection of SMYD2 cellular methylation activity an In Cell Western (ICW) assay was established. This assay allows rapid processing of multiple samples for SMYD2 methylation derived immunofluorescence signals, with normalization to cell number via the use of the nucleic acid dye DRAQ5. […] To detect SMYD2-mediated methylation signals in cells, a customized antibody directed against mono-methylated lysine 370 on protein p53 (p53K370me1) was used.
For conducting the ICW assay 5000 SMYD2 overexpressing KYSE-150 cells/well were seeded in 96-well plates (SIGMA) and cultivated for 24 h. As a control for maximal inhibition of ectopic methylation activity, non-transfected KYSE-150 cells were used. Cells were grown in 49% RPMI 1640 with 49% Ham's F12 media supplemented with 2% heat inactivated fetal calf serum (FCS). […] After 5 washes with PBS, the fluorescence in each well was measured on an Odyssey (LI-COR) scanner at 800 nm (p53K370me1 signal; 764 nm excitation) and 700 nm (DRAQ5 signal; 683 nm excitation). Fluorescence intensity was quantified and normalized to background and DRAQ5 signals. IC50 values were calculated by fitting the normalized inhibition data to a 4-parameter logistic equation (Minimum, Maximum, IC50, Hill; Y=Max+(Min−Max)/(1+(X/IC50)Hill)) for each tested compound. […] Ci (maximal inhibition) was defined as the signal measured for non SMYD2 overexpressing KYSE150 cells.
[3] abbreviates: methylation of biotinylated p53 Peptide, 3H-SAM, full length SMYD2.

T1 sequence (Q9NRG4 whole entry): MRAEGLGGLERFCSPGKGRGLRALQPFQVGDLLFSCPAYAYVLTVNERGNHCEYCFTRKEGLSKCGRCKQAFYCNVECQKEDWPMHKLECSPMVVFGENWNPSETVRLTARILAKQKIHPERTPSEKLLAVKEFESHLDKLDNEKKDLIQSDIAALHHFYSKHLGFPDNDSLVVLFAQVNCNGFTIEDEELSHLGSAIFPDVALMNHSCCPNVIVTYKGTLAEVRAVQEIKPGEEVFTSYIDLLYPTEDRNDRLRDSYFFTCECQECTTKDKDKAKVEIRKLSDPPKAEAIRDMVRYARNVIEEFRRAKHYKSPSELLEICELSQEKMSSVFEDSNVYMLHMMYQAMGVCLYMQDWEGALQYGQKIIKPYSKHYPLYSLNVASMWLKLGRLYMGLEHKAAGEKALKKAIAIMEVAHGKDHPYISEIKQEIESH

As for `CCN(C(=O)CO)C1CN(/C(=N\C#N)Nc2ccc(Cl)c(OC(F)F)c2)N=C1c1ccc(Cl)c(Cl)c1` (racemic) [Example 11, Rac-N-[1-{N-[4-chloro-3-(difluoromethoxy)phenyl]-N′-cyanocarbamimidoyl}-3-(3,4-dichlorophenyl)-4,5-dihydro-1H-pyrazol-4-yl]-N-ethyl-2-hydroxyacetamide], the IC50 on SMYD2 [1] (setting [3]) turned out to be 144 nM; at SMYD2 [2], 376 nM.
Regarding `CCN(C(=O)[C@H](N)C(C)C)C1CN(/C(=N\C#N)Nc2cccc(OC(F)(F)F)c2F)N=C1c1ccc(Cl)c(Cl)c1` (stereo partly drawn) [Example 40, N-[1-{N′-Cyano-N-[2-fluoro-3-(trifluoromethoxy)phenyl]carbamimidoyl}-3-(3,4-dichlorophenyl)-4,5-dihydro-1H-pyrazol-4-yl]-N-ethyl-D-valinamide], the IC50 on SMYD2 [1] (setting [3]) is 418 nM.
Consider `CCN(C(=O)[C@H](N)C(C)C)C1CN(/C(=N\C#N)Nc2cccc(OC(F)F)c2)N=C1c1ccc(Cl)c(Cl)c1` (stereo partly drawn) [Example 41, N-[1-{N′-Cyano-N-[3-(difluoromethoxy)phenyl]carbamimidoyl}-3-(3,4-dichlorophenyl)-4,5-dihydro-1H-pyrazol-4-yl]-N-ethyl-D-valinamide], for which the IC50 on SMYD2 [1] (setting [3]) stood at 73.5 nM.
Regarding `CCN(C(=O)CO)C1CN(/C(=N\C#N)Nc2cccc(OC(F)F)c2)N=C1c1ccc(Cl)cc1` (stereo not drawn) [WO 2006/072350 Example 67 more active isomer, reference compound], at SMYD2 [1] (comparison example versus WO 2006/072350), the IC50 was 548 nM.
